Data from patent publication US20210120813A1, “INHIBITORS OF THE SHIKIMATE PATHWAY” (PEPTICOM LTD., priority 2018, published 2021).
Where “and” joins values, the source holds several entries; their conditions need not be identical. Equal entries are not always repeated. Entries after “also recorded” stand apart in the source; their conditions may differ. Where two headings read alike, the source gives them in different places.

Columns and labels:
[1] = system: EPSPS (TIPS mutant) from common wheat; format: cell-based, Triticum Aestivum
[2] = system: EPSPS (wild type) from common wheat; format: cell-based, Triticum Aestivum; conditions: for ability of rescued AB2829 bacteria cells (wild type EPSPS) to grow on M9 minimal media: 40 h, 0.1% rhamnose
[3] = system: EPSPS (TIPS mutant) from common wheat; format: cell-based, Triticum Aestivum; remark: listed apart in the source
WT EPSPS = WT EPSPS (Triticum aestivum, UniProt B5M6A1); experiment: In-vitro kinetics of EPSPS enzymatic activity (Malachite green phosphate release), WT; format: biochemical; conditions: apparent Km increases, Vmax unaffected; glyphosate vs PEP, compound 4 vs S3P
WT EPSPS, sequence (B5M6A1 66-510 limits assumed): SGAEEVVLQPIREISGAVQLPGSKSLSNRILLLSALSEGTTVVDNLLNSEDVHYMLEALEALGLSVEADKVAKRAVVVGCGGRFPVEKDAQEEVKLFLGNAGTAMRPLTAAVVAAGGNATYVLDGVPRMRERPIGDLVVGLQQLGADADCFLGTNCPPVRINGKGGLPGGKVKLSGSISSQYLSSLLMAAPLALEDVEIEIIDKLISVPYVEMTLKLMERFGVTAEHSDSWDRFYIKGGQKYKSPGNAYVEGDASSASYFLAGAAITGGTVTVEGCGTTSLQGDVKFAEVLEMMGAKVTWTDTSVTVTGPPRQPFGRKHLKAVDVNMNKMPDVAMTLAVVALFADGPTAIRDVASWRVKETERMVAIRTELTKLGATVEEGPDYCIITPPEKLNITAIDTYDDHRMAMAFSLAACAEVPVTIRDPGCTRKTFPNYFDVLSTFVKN

TIPS EPSPS = TIPS EPSPS (Triticum aestivum, UniProt B5M6A1, P172S/T168I); format: biochemical; conditions: for effect of the TIPS mutation on inhibition of EPSPS activity (IC50 WT vs TIPS): WT vs TIPS EPSPS enzyme
TIPS EPSPS, sequence (B5M6A1 66-510 P172S/T168I limits assumed): as the sequence (B5M6A1 66-510 limits assumed) above, with T103I, P107S counted along it

[4] = system: Chenopodium album (CHEAL); experiment: Weed efficacy on petri dishes, germination and visual notation, CHEAL; format: in vivo; conditions: for CHEAL Visual notation Mean: scale 0 = as control to 100
[5] = system: Lolium multiflorum (LOLMU); experiment: Weed efficacy on petri dishes, germination and visual notation, LOLMU; format: in vivo; conditions: for LOLMU Visual notation Mean: scale 0 = as control to 100

COc1c(C(=O)O)ccc([N+](=O)[O-])c1O [Compound 1, 3-Hydroxy-2-methoxy-4-nitrobenzoic acid]
% bacterial growth relative to rescue with mutant EPSPS at 20 mM, 40 h post application [1]: −79%
ability of rescued AB2829 bacteria cells (EPSPS TIPS) to grow on M9 minimal media ([1]; 20 mM, 40 h, 0.1% rhamnose): completely abolish
% bacterial growth relative to rescue with wild type EPSPS at 5 mM, 40 h post application [2]: −15%
ability of rescued AB2829 bacteria cells (wild type EPSPS) to grow on M9 minimal media ([2]; 5 mM): completely abolish

COc1ccc(C(=O)O)cc1O [Compound 2, 3-Hydroxy-4-methoxybenzoic acid]
% bacterial growth relative to rescue with mutant EPSPS at 20 mM, 40 h post application [1]: −25%
ability of rescued AB2829 bacteria cells (EPSPS TIPS) to grow on M9 minimal media ([1]; 20 mM, 40 h, 0.1% rhamnose): completely abolish
% bacterial growth relative to rescue with wild type EPSPS at 5 mM, 40 h post application [2]: 27%
ability of rescued AB2829 bacteria cells (wild type EPSPS) to grow on M9 minimal media ([2]; 5 mM): completely abolish

O=C(O)c1cccc(O)c1O [Compound 3, 2,3-Dihydroxybenzoic acid]
growth with gradually increasing rhamnose (EPSPS TIPS titration) ([3]; 2.5 mM, rhamnose 0%-0.4%, 60 h): facilitates growth in a gradual manner
% bacterial growth relative to rescue with mutant EPSPS at 20 mM, 40 h post application [1]: −105%
ability of rescued AB2829 bacteria cells (EPSPS TIPS) to grow on M9 minimal media ([1]; 20 mM, 40 h, 0.1% rhamnose): completely abolish
% bacterial growth relative to rescue with wild type EPSPS at 5 mM, 40 h post application [2]: 54%
ability of rescued AB2829 bacteria cells (wild type EPSPS) to grow on M9 minimal media ([2]; 5 mM): completely abolish

Nc1cc(O)c([N+](=O)[O-])cc1C(=O)O [Compound 4, 2-Amino-4-hydroxy-5-nitrobenzoic acid]
growth with gradually increasing rhamnose (EPSPS TIPS titration) ([3]; 1.0 mM, rhamnose 0%-0.4%, 60 h): facilitates growth in a gradual manner
% bacterial growth relative to rescue with mutant EPSPS at 20 mM, 40 h post application [1]: −94%
ability of rescued AB2829 bacteria cells (EPSPS TIPS) to grow on M9 minimal media ([1]; 20 mM, 40 h, 0.1% rhamnose): completely abolish
mode of EPSPS inhibition (Michaelis-Menten and Lineweaver-Burk plots) (WT EPSPS): competitive inhibitor
inhibition of the TIPS mutant relative to glyphosate (TIPS EPSPS; IC50 comparison, TIPS EPSPS enzyme): one order of magnitude better
effect of the TIPS mutation on inhibition of EPSPS activity (IC50 WT vs TIPS) (TIPS EPSPS): hardly affected
% bacterial growth relative to rescue with wild type EPSPS at 5 mM, 40 h post application [2]: −87%
ability of rescued AB2829 bacteria cells (wild type EPSPS) to grow on M9 minimal media ([2]; 5 mM): completely abolish

O=C(O)c1cccc(C(=O)O)c1O [Compound 5, 2-Hydroxy-1,3-benzenedicarboxylic acid]
% bacterial growth relative to rescue with mutant EPSPS at 20 mM, 40 h post application [1]: −220%
ability of rescued AB2829 bacteria cells (EPSPS TIPS) to grow on M9 minimal media ([1]; 20 mM, 40 h, 0.1% rhamnose): completely abolish

O=C(O)c1cc([N+](=O)[O-])cc([N+](=O)[O-])c1O [Compound 6, 2-Hydroxy-3,5-dinitrobenzoic acid]
% bacterial growth relative to rescue with mutant EPSPS at 20 mM, 40 h post application [1]: −285%
ability of rescued AB2829 bacteria cells (EPSPS TIPS) to grow on M9 minimal media [1]: completely abolish

Nc1ccc([N+](=O)[O-])cc1C(=O)O [Compound 7, 2-Amino-5-nitrobenzoic acid]
% bacterial growth relative to rescue with mutant EPSPS at 20 mM, 40 h post application [1]: −260%
ability of rescued AB2829 bacteria cells (EPSPS TIPS) to grow on M9 minimal media ([1]; 20 mM, 40 h, 0.1% rhamnose): completely abolish

CNc1ccc([N+](=O)[O-])cc1C(=O)O [Compound 8, -(Methylamino)-5-nitrobenzoic acid]
CHEAL Germination (%) Mean ([4]; 50 mg a.i./L, 10 DAT): 90.0%
CHEAL Visual notation Mean ([4]; 50 mg a.i./L, 10 DAT): 21.8
CHEAL Germination (%) Mean ([4]; 500 mg a.i./L, 10 DAT): 55.0%
CHEAL Visual notation Mean ([4]; 500 mg a.i./L, 10 DAT): 83.8
CHEAL Germination (%) Mean ([4]; 5000 mg a.i./L, 10 DAT): 34.5%
CHEAL Visual notation Mean ([4]; 5000 mg a.i./L, 10 DAT): 95.0
% bacterial growth relative to rescue with mutant EPSPS at 20 mM, 40 h post application [1]: −272%
ability of rescued AB2829 bacteria cells (EPSPS TIPS) to grow on M9 minimal media ([1]; 20 mM, 40 h, 0.1% rhamnose): completely abolish
LOLMU Germination (%) Mean ([5]; 50 mg a.i./L, 10 DAT): 93.2%
LOLMU Visual notation Mean ([5]; 50 mg a.i./L, 10 DAT): 3.5
LOLMU Germination (%) Mean ([5]; 500 mg a.i./L, 10 DAT): 91.1%
LOLMU Visual notation Mean ([5]; 500 mg a.i./L, 10 DAT): 6.6
LOLMU Germination (%) Mean ([5]; 5000 mg a.i./L, 10 DAT): 30.4%
LOLMU Visual notation Mean ([5]; 5000 mg a.i./L, 10 DAT): 64.8

O=C(O)c1ccc(O)c([N+](=O)[O-])c1 [Compound 10, 4-Hydroxy-3-nitrobenzoic acid]
growth with gradually increasing rhamnose (EPSPS TIPS titration) ([3]; 0.4 mM, rhamnose 0%-0.4%, 60 h): facilitates growth in a gradual manner
CHEAL Germination (%) Mean ([4]; 50 mg a.i./L, 10 DAT): 68.8%
CHEAL Visual notation Mean ([4]; 50 mg a.i./L, 10 DAT): 52.4
CHEAL Germination (%) Mean ([4]; 500 mg a.i./L, 10 DAT): 81.7%
CHEAL Visual notation Mean ([4]; 500 mg a.i./L, 10 DAT): 54.4
CHEAL Germination (%) Mean ([4]; 5000 mg a.i./L, 10 DAT): 56.7%
CHEAL Visual notation Mean ([4]; 5000 mg a.i./L, 10 DAT): 76.5
% bacterial growth relative to rescue with mutant EPSPS at 20 mM, 40 h post application [1]: −21%
ability of rescued AB2829 bacteria cells (EPSPS TIPS) to grow on M9 minimal media ([1]; 20 mM, 40 h, 0.1% rhamnose): completely abolish
% bacterial growth relative to rescue with wild type EPSPS at 5 mM, 40 h post application [2]: −61%
ability of rescued AB2829 bacteria cells (wild type EPSPS) to grow on M9 minimal media ([2]; 5 mM): completely abolish
LOLMU Germination (%) Mean ([5]; 50 mg a.i./L, 10 DAT): 95.6%
LOLMU Visual notation Mean ([5]; 50 mg a.i./L, 10 DAT): 18.4
LOLMU Germination (%) Mean ([5]; 500 mg a.i./L, 10 DAT): 95.6%
LOLMU Visual notation Mean ([5]; 500 mg a.i./L, 10 DAT): 31.8
LOLMU Germination (%) Mean ([5]; 5000 mg a.i./L, 10 DAT): 95.6%
LOLMU Visual notation Mean ([5]; 5000 mg a.i./L, 10 DAT): 54.0

O=C(O)c1cc([N+](=O)[O-])cc([N+](=O)[O-])c1 [Compound 11, 3,5-Dinitrobenzoic acid]
growth with gradually increasing rhamnose (EPSPS TIPS titration) [3]: facilitates growth in a gradual manner
CHEAL Germination (%) Mean ([4]; in vivo): 73.3% and 66.1% and 37.6%
% bacterial growth relative to rescue with mutant EPSPS at 20 mM, 40 h post application [1]: −27%
ability of rescued AB2829 bacteria cells (EPSPS TIPS) to grow on M9 minimal media [1]: completely abolish
ability of rescued AB2829 bacteria cells (wild type EPSPS) to grow on M9 minimal media ([2]; 5 mM): completely abolish
% bacterial growth relative to rescue with wild type EPSPS at 5 mM, 40 h post application ([2]; 5 mM, 40 h post application, OD600, EPSPS null = 0%, Rescue = 100%): −38%
LOLMU Germination (%) Mean ([5]; in vivo): 82.2% and 95.6%

COC(=O)c1cc([N+](=O)[O-])cc([N+](=O)[O-])c1 [Compound 12, 3,5-Dinitrobenzoic acid methyl ester]
% bacterial growth relative to rescue with mutant EPSPS at 20 mM, 40 h post application [1]: −29%
ability of rescued AB2829 bacteria cells (EPSPS TIPS) to grow on M9 minimal media [1]: completely abolish
ability of rescued AB2829 bacteria cells (wild type EPSPS) to grow on M9 minimal media ([2]; 5 mM): completely abolish

O=C1NC(=O)c2c1ccc(O)c2O [Compound 13, 4,5-Dihydroxyisoindoline-1,3-dione]
growth with gradually increasing rhamnose (EPSPS TIPS titration) ([3]; 0.25 mM, rhamnose 0%-0.4%, 60 h): could not facilitates growth in a gradual manner
rescue of growth phenotype by titration of EPSPS TIPS intracellular levels ([3]; single inhibitory dose, rhamnose 0.0%-0.4%): couldn't rescue the growth phenotype
% bacterial growth relative to rescue with mutant EPSPS at 20 mM, 40 h post application [1]: −31%
ability of rescued AB2829 bacteria cells (EPSPS TIPS) to grow on M9 minimal media ([1]; 20 mM, 40 h, 0.1% rhamnose): completely abolish
% bacterial growth relative to rescue with wild type EPSPS at 5 mM, 40 h post application [2]: −20%
ability of rescued AB2829 bacteria cells (wild type EPSPS) to grow on M9 minimal media ([2]; 5 mM): completely abolish

O=C(O)c1cc([N+](=O)[O-])c(F)c(C(F)(F)F)c1 [Compound 14, 4-Fluoro-3-nitro-5-(trifluoromethyl)benzoic acid]
% bacterial growth relative to rescue with mutant EPSPS at 20 mM, 40 h post application [1]: −142%
ability of rescued AB2829 bacteria cells (EPSPS TIPS) to grow on M9 minimal media ([1]; 20 mM, 40 h, 0.1% rhamnose): completely abolish

O=C(O)c1cc([N+](=O)[O-])cc(C(F)(F)F)c1 [Compound 15, 3-Nitro-5-(trifluoromethyl) benzoic acid]
growth with gradually increasing rhamnose (EPSPS TIPS titration) ([3]; 0.6 mM, rhamnose 0%-0.4%, 60 h): facilitates growth in a gradual manner
% bacterial growth relative to rescue with mutant EPSPS at 20 mM, 40 h post application [1]: −118%
ability of rescued AB2829 bacteria cells (EPSPS TIPS) to grow on M9 minimal media ([1]; 20 mM, 40 h, 0.1% rhamnose): completely abolish
% bacterial growth relative to rescue with wild type EPSPS at 5 mM, 40 h post application [2]: −177%

O=C(O)c1cc(C(F)(F)F)cc([N+](=O)[O-])c1F [Compound 16, 2-Fluoro-3-nitro-5-(trifluoromethyl)benzoic acid]
% bacterial growth relative to rescue with mutant EPSPS at 20 mM, 40 h post application [1]: −56%
ability of rescued AB2829 bacteria cells (EPSPS TIPS) to grow on M9 minimal media ([1]; 20 mM, 40 h, 0.1% rhamnose): completely abolish

O=C(O)CNCP(=O)(O)O [Glyphosate, N-(phosphonomethyl)glycine, reference compound]
growth with gradually increasing rhamnose (EPSPS TIPS titration) [3]: facilitates growth in a gradual manner
% bacterial growth relative to rescue with mutant EPSPS at 20 mM, 40 h post application [1]: +127% (+/−37%)
ability of rescued AB2829 bacteria cells (EPSPS TIPS) to grow on M9 minimal media ([1]; 20 mM, 40 h, 0.1% rhamnose): TIPS mutant is indifferent to glyphosate; also recorded: facilitates growth
mode of EPSPS inhibition (Michaelis-Menten and Lineweaver-Burk plots) (WT EPSPS): competitive inhibitor
effect of the TIPS mutation on inhibition of EPSPS activity (IC50 WT vs TIPS) (TIPS EPSPS): 3 orders of magnitude stronger
% bacterial growth relative to rescue with wild type EPSPS, 40 h post application [2]: +6.0% (0.7 mM) −46% (1.5 mM)
ability of rescued AB2829 bacteria cells (wild type EPSPS) to grow on M9 minimal media ([2]; 0.7 mM): could not facilitates growth
ability of rescued AB2829 bacteria cells (wild type EPSPS) to grow on M9 minimal media ([2]; 1.5 mM): could not facilitates growth
